Measured values from ChEMBL document CHEMBL1201862, “PubChem BioAssay data set” (2004).
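These data come from cells grown in 96-well plates and exposed to compound for 48 hours at five concentrations. The concentration for 50% growth inhibition is given as GI50.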 Calls of active or inactive are those of the source. Rule as the data show it: active = GI50 up to about 1.1 µM and inactive = higher.

What was measured:
Experiment in all cases: growth of human tumour cells (NCI), 48 h
786-0 = tested on: 786-0
A498 = tested on: A498
A549 = tested on: A549
ACHN = tested on: ACHN
BT-549 = tested on: BT-549
CAKI-1 = tested on: CAKI-1
CCRF-CEM = tested on: CCRF-CEM
COLO 205 = tested on: COLO 205
DU-145 = tested on: DU-145
EKVX = tested on: EKVX
HCC 2998 = tested on: HCC 2998
HCT-116 = tested on: HCT-116
HCT-15 = tested on: HCT-15
HL-60 = tested on: HL-60
HOP-62 = tested on: HOP-62
HT-29 = tested on: HT-29
Hs-578T = tested on: Hs-578T
IGROV-1 = tested on: IGROV-1
K562 = tested on: K562
KM12 = tested on: KM12
LOX IMVI = tested on: LOX IMVI
M14 = tested on: M14
MCF7 = tested on: MCF7
MDA-MB-231 = tested on: MDA-MB-231
MDA-MB-435 = tested on: MDA-MB-435
MDA-N = tested on: MDA-N
MOLT-4 = tested on: MOLT-4
Malme-3M = tested on: Malme-3M
NCI-H226 = tested on: NCI-H226
NCI-H23 = tested on: NCI-H23
NCI-H522 = tested on: NCI-H522
NCI/ADR-RES = tested on: NCI/ADR-RES
OVCAR-3 = tested on: OVCAR-3
OVCAR-4 = tested on: OVCAR-4
OVCAR-5 = tested on: OVCAR-5
OVCAR-8 = tested on: OVCAR-8
PC-3 = tested on: PC-3
RPMI-8226 = tested on: RPMI-8226
RXF 393 = tested on: RXF 393
SF-268 = tested on: SF-268
SF-295 = tested on: SF-295
SK-MEL-28 = tested on: SK-MEL-28
SK-MEL-2 = tested on: SK-MEL-2
SK-MEL-5 = tested on: SK-MEL-5
SK-OV-3 = tested on: SK-OV-3
SN12C = tested on: SN12C
SNB-19 = tested on: SNB-19
SNB-75 = tested on: SNB-75
SR = tested on: SR
SW-620 = tested on: SW-620
T47D = tested on: T47D
TK-10 = tested on: TK-10
U-251 = tested on: U-251
UACC-257 = tested on: UACC-257
UACC-62 = tested on: UACC-62
UO-31 = tested on: UO-31
NCI-H460 = tested on: NCI-H460
SF-539 = tested on: SF-539

Measured: GI50

CN(C)S(=O)(=O)c1nc(Cl)c2nc[nH]c2n1
inactive: 786-0 > 100 µM | A498 > 100 µM | A549 > 100 µM | ACHN > 100 µM | BT-549 > 100 µM | CAKI-1 > 100 µM | CCRF-CEM > 100 µM | COLO 205 > 100 µM | DU-145 > 100 µM | EKVX > 100 µM | HCC 2998 > 100 µM | HCT-116 > 100 µM | HL-60 98.6 µM | HOP-62 > 100 µM | HT-29 > 100 µM | Hs-578T > 100 µM | IGROV-1 > 100 µM | K562 > 100 µM | KM12 > 100 µM | LOX IMVI > 100 µM | M14 > 100 µM | MCF7 > 100 µM | MDA-MB-231 > 100 µM | MDA-MB-435 > 100 µM | MDA-N > 100 µM | MOLT-4 > 100 µM | Malme-3M > 100 µM | NCI-H226 > 100 µM | NCI-H23 > 100 µM | NCI-H522 > 100 µM | NCI/ADR-RES > 100 µM | OVCAR-3 > 100 µM | OVCAR-4 > 100 µM | OVCAR-5 > 100 µM | OVCAR-8 > 100 µM | PC-3 > 100 µM | RPMI-8226 > 100 µM | RXF 393 55.7 µM | SF-268 > 100 µM | SF-295 > 100 µM | SK-MEL-28 > 100 µM | SK-MEL-2 > 100 µM | SK-MEL-5 > 100 µM | SK-OV-3 > 100 µM | SN12C > 100 µM | SNB-19 > 100 µM | SNB-75 36.9 µM | SR > 100 µM | SW-620 > 100 µM | T47D > 100 µM | TK-10 > 100 µM | U-251 > 100 µM | UACC-257 > 100 µM | UACC-62 > 100 µM | UO-31 > 100 µM
> 100 µM: HCT-15

CCn1c(SCC(=O)NNC(=S)NC)nc2ccccc2c1=O
inactive: 786-0 > 100 µM | A498 69 µM | A549 88.9 µM | ACHN > 100 µM | BT-549 68.1 µM | CAKI-1 24.1 µM | CCRF-CEM > 100 µM | COLO 205 > 100 µM | DU-145 > 100 µM | EKVX > 100 µM | HCC 2998 > 100 µM | HCT-116 > 100 µM | HL-60 > 100 µM | HOP-62 > 100 µM | Hs-578T > 100 µM | IGROV-1 > 100 µM | K562 > 100 µM | KM12 > 100 µM | LOX IMVI > 100 µM | M14 > 100 µM | MCF7 > 100 µM | MDA-MB-231 > 100 µM | MDA-MB-435 > 100 µM | MDA-N > 100 µM | MOLT-4 > 100 µM | Malme-3M > 100 µM | NCI-H226 > 100 µM | NCI-H23 > 100 µM | NCI-H460 18.6 µM | NCI-H522 > 100 µM | NCI/ADR-RES > 100 µM | OVCAR-3 > 100 µM | OVCAR-4 76.4 µM | OVCAR-5 > 100 µM | OVCAR-8 > 100 µM | PC-3 96.8 µM | RPMI-8226 53 µM | RXF 393 34 µM | SF-268 > 100 µM | SF-295 > 100 µM | SF-539 > 100 µM | SK-MEL-28 > 100 µM | SK-MEL-2 > 100 µM | SK-MEL-5 > 100 µM | SK-OV-3 > 100 µM | SN12C > 100 µM | SNB-19 > 100 µM | SNB-75 > 100 µM | SR > 100 µM | SW-620 > 100 µM | T47D > 100 µM | TK-10 49 µM | U-251 > 100 µM | UACC-257 > 100 µM | UACC-62 > 100 µM | UO-31 62.2 µM
> 100 µM: HCT-15

c1cc2nnc1SCCCSc1ccc(nn1)SCCCSc1ccc(nn1)SCCCS2
inactive: 786-0 61 µM | A498 > 100 µM | A549 > 100 µM | ACHN > 100 µM | BT-549 > 100 µM | CAKI-1 > 100 µM | CCRF-CEM > 100 µM | COLO 205 > 100 µM | DU-145 > 100 µM | HCC 2998 > 100 µM | HCT-116 > 100 µM | HL-60 > 100 µM | HOP-62 39.6 µM | HT-29 > 100 µM | Hs-578T 32.4 µM | IGROV-1 > 100 µM | K562 > 100 µM | KM12 > 100 µM | LOX IMVI > 100 µM | M14 > 100 µM | MCF7 > 100 µM | MDA-MB-231 97.3 µM | MDA-MB-435 > 100 µM | MDA-N > 100 µM | MOLT-4 > 100 µM | Malme-3M > 100 µM | NCI-H226 > 100 µM | NCI-H23 > 100 µM | NCI-H460 > 100 µM | NCI-H522 > 100 µM | NCI/ADR-RES > 100 µM | OVCAR-3 > 100 µM | OVCAR-4 > 100 µM | OVCAR-5 > 100 µM | OVCAR-8 > 100 µM | PC-3 > 100 µM | RPMI-8226 > 100 µM | RXF 393 56.4 µM | SF-268 92 µM | SF-295 > 100 µM | SF-539 82.4 µM | SK-MEL-28 > 100 µM | SK-MEL-2 83.8 µM | SK-MEL-5 > 100 µM | SK-OV-3 > 100 µM | SN12C > 100 µM | SNB-19 44.7 µM | SNB-75 28.6 µM | SR > 100 µM | SW-620 > 100 µM | T47D > 100 µM | TK-10 > 100 µM | U-251 65.2 µM | UACC-257 > 100 µM | UACC-62 > 100 µM | UO-31 > 100 µM
> 100 µM: HCT-15
